According to patent US12338243B2, “P2X7 modulators” (JANSSEN PHARMACEUTICA NV, priority 2014, dated 2025):

Experiments:
P2X7 [1] = target: T1, P2X7 (Homo sapiens, UniProt Q99572); assay: Radioligand binding, human P2X7-1321N1 cell membranes, tritiated A-804598
T1 sequence (Q99572 1-595): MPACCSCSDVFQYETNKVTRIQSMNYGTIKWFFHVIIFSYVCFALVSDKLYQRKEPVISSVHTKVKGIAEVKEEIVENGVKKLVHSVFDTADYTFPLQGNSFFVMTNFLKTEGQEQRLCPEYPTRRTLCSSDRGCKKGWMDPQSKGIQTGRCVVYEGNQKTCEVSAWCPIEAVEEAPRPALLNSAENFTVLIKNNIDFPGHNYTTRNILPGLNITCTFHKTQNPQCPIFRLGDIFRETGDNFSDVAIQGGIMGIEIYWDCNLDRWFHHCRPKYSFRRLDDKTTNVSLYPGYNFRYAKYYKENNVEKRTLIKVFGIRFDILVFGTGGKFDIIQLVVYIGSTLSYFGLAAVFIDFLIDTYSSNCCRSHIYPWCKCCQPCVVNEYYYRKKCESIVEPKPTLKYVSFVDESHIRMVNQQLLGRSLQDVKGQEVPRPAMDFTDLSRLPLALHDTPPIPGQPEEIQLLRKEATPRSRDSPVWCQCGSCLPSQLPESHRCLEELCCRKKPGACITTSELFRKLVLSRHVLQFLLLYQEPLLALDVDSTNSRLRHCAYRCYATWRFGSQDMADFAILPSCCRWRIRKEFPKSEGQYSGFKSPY
Description: (§3) P2X7 Antagonism in Recombinant Human P2X7 Cells or Recombinant Rat P2X7 Cells: (a) Ca^2+ Flux and (b) Radioligand Binding

P2X7 [2] = target: T1, P2X7; assay: P2X7 antagonism in human whole blood (IL-1β release, ELISA); type: cell-based; design: PBMCs were isolated from blood using a Ficoll density gradient technique; endogenous in cells; host or cells: human PBMCs / human whole blood from donors; conditions: LPS 30 ng/ml + 1 mM Bz-ATP
Description: (§1) P2X7 Antagonism in Human Peripheral Blood Mononuclear Cells (PBMCs) and Human Whole Blood.
(§2) Human blood was collected using a blood donor program. PBMCs were isolated from blood using a Ficoll density gradient technique. Briefly, blood was laid on Ficoll solution and centrifuged at RT for 20 minutes at 2000 rpm. The buffy layer (between red blood cells and plasma) was carefully collected by aspiration, washed with PBS and centrifuged again at 1500 rpm for 15 minutes. The resulting cell pellet was washed and plated on 96 well-plates for experiments. For the Human Whole Blood experiments, 150 μl of human blood was platted on 96 well-plates. Lipopolysaccharide (LPS) (30 ng/ml) was added to each well and incubated for 1 hour. Test compounds were then added and incubated for 30 minutes. The P2X7 agonist, 2′(3′)-O-(4-benzoylbenzoyl) adenosine 5′ triphosphate (Bz-ATP) was then added at a final concentration of 0.5 mM (PBMC) or 1 mM (blood). Cells were incubated for an additional 1.5 hours. At that point, supernatant was collected and stored for IL-1β assay using manufacturer's protocol for enzyme-linked immunosorbent assay (ELISA). Data was expressed as percent control, where control is defined as the difference in IL-1β release in LPS+Bz-ATP samples and LPS only samples. Data was plotted as response (% control) versus concentration to generate IC50 values. […] Data are analyzed and graphed on Graphpad Prism 5. For analysis, each concentration point is averaged from triplicate values and the averaged values are plotted on Graphpad Prism. The IC50 for each compound is then uploaded into 3DX.

rat P2X7 [3] = target: T2, rat P2X7 (Rattus norvegicus, UniProt Q64663); assay: Ca2+ flux (FLIPR) in 1321N1 cells expressing recombinant rat P2X7 channel; conditions: FLIPR (rat) IC50 (μM), 250 μM BzATP
T2 sequence (Q64663 1-595): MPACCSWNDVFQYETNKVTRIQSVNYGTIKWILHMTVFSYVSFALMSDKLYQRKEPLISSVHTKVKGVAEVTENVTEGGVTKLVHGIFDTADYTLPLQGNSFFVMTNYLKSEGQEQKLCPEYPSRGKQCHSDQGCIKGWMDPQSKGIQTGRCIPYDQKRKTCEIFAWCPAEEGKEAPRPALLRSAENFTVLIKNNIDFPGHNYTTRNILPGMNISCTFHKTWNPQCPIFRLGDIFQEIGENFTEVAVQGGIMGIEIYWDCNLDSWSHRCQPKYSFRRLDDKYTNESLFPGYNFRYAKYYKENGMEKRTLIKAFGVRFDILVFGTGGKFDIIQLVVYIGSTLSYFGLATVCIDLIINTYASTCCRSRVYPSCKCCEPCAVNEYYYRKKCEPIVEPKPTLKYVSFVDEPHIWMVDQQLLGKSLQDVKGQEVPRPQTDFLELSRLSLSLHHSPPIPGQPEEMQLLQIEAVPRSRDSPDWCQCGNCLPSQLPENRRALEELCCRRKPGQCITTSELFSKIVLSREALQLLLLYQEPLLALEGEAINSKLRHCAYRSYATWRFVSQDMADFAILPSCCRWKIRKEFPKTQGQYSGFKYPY
Description: as §3
(a) Ca^2+ flux: 1321N1 cells expressing the recombinant human or rat P2X7 channel was cultured in HyQ DME/(HyClone/Dulbecco's Modified Eagle Medium) high glucose supplemented with 10% Fetal Bovine Serum (FBS) and appropriate selection marker. Cells were seeded at a density of 25000 cells/well (96-well clear bottom black walled plates) in 100 μl volume/well. On the day of the experiment, cell plates were washed with assay buffer, containing (in mM): 130 NaCl, 2 KCl, 1 CaCl2), 1 MgCl2, 10 HEPES, 5 glucose; pH 7.40 and 300 mOs. After the wash, cells were loaded with the Calcium-4 dye (Molecular Device) and incubated in the dark for 60 minutes. Test compounds were prepared at 250× the test concentration in neat DMSO. Intermediate 96-well compound plates were prepared by transferring 1.2 μL of the compound into 300 μL of assay buffer. A further 3× dilution occurred when transferring 50 μL/well of the compound plate to 100 μL/well in the cell plate. Cells were incubated with test compounds and dye for 30 minutes. […] The fluorescence change was measured 180 seconds after adding the agonist.

P2X7 [4] = target: T1, P2X7; assay: Ca2+ flux (FLIPR) in 1321N1 cells expressing recombinant human P2X7 channel; type: cell-based; design: expressed in transfected cells; host or cells: 1321N1 cells; conditions: 250 μM BzATP
In short: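 1321N1 cells expressing recombinant human P2X7, loaded 60 min with Calcium-4 dye in HEPES buffer pH 7.40 (1 mM CaCl2, 1 mM MgCl2), preincubated 30 min with compounds. Fluorescence change recorded 180 seconds after agonist addition.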

P2X7 [5] = target: T1, P2X7; assay: P2X7 antagonism in human PBMCs (IL-1β release, ELISA); type: cell-based; design: PBMCs were isolated from blood using a Ficoll density gradient technique; endogenous in cells; host or cells: human PBMCs / human whole blood from donors; conditions: LPS 30 ng/ml + 0.5 mM Bz-ATP, compound 10 μM
Description: as §1, §2

rat P2X7 [6] = target: T2, rat P2X7; assay: Radioligand binding, rat P2X7-1321N1 cell membranes, tritiated A-804598
Description: as §3

Row | Ki (P2X7 [1]) | IC50 (P2X7 [2]) | IC50 (rat P2X7 [3]) | IC50 (P2X7 [4]) | PBMC 10 μM (% control) (P2X7 [5]) | Ki (rat P2X7 [6]) | SMILES
1 | 50.1 nM | 1590 nM | 0.927 µM | 83.8 nM |  |  | C[C@H]1Cn2c(nnc2-c2cc(F)c(F)c(F)c2)CN1C(=O)c1cccc(C(F)(F)F)c1Cl [Example 30, (S)-(2-chloro-3-(trifluoromethyl)phenyl)(6-methyl-3-(3,4,5-trifluorophenyl)-5,6-dihydro-[1,2,4]triazolo[4,3-a]pyrazin-7(8H)-yl)methanone]
2 | 17.4 nM |  | 0.0348 µM | 9.1 nM | 4.9 % control | 6.3 nM | O=C(c1ccnc(C(F)(F)F)c1Cl)N1CCn2c(nnc2C(F)(F)F)C1c1ccccc1 (single isomer, unassigned) [Example 99, (R*)-(3-chloro-2-(trifluoromethyl)pyridin-4-yl)(8-phenyl-3-(trifluoromethyl)-5,6-dihydro-[1,2,4]triazolo[4,3-a]pyrazin-7(8H)-yl)methanone]
3 | 21.9 nM | 25 nM | 0.0047 µM | 6.8 nM |  |  | C[C@H]1Cn2c(nnc2-c2ccco2)CN1C(=O)c1cccc(C(F)(F)F)c1Cl [Example 24, (S)-(2-chloro-3-(trifluoromethyl)phenyl)(3-(furan-2-yl)-6-methyl-5,6-dihydro-[1,2,4]triazolo[4,3-a]pyrazin-7(8H)-yl)methanone]
4 | 15.8 nM | 79 nM | 0.0628 µM | 2 nM |  | 39.8 nM | Cc1nnc2n1CCN(C(=O)c1cccc(C(F)(F)F)c1Cl)C2c1ccccc1 (racemic) [Example 53, (2-chloro-3-(trifluoromethyl)phenyl)(3-methyl-8-phenyl-5,6-dihydro-[1,2,4]triazolo[4,3-a]pyrazin-7(8H)-yl)methanone]
